The source of these data is patent US12649751B2 (Arcus Biosciences, Inc., priority 2022, dated 2026).

SMILES strings stand for the structures. Where two headings read alike, the source gives them in different places. Bounds are passed on as bounds.

Assay [1] deals with p-SLP-76 (Ser376) in Jurkat cells. Nature of the assay: pSLP76 Cellular Assay (AlphaLISA SureFire Ultra p-SLP-76 (Ser376), anti-CD3 activated Jurkat cells). The class given is cell-based. The settings on record: read-out: Cellular Potency. A digest of the protocol:
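Jurkat cells, serum-starved overnight in Opti-MEM then in HBSS, preincubated 1 h at 37 °C with 22-point 2-fold compound dilutions, then stimulated with anti-CD3 (0.025 mg/ml added solution) for 45 min. Lysate p-SLP-76 (Ser376) measured by AlphaLISA at 570 nm; IC50 from 4-parameter logistic fit.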

A further assay addresses HPK1 (Homo sapiens, UniProt Q92918). Nature of the assay: HPK1 Biochemical Assay (ADP-Glo luminescence; low ATP 10 μM or high ATP 200 μM). In general terms: In ADP-Glo the light output rises with the ADP produced.
Where [2] appears, read: Homo sapiens, pSLP76 (Ser376) AlphaLISA, anti-CD3 activated Jurkat cells.
The mark [3] stands for this setting: HPK1 ADP-Glo assay, high ATP (200 μM ATP, 5 nM HPK1), read-out: Biochemical Potency (high ATP).
The mark [4] stands for this setting: HPK1 ADP-Glo assay, low ATP (10 μM ATP, 2 nM HPK1), read-out: Biochemical Potency (low ATP).
The mark [5] stands for this setting: Homo sapiens, Jurkat cells, anti-CD3 stimulation, pSLP76.
Where [6] appears, read: 2 nM HPK1, 10 μM ATP, read-out: Biochemical Potency (low ATP).

Sequence of HPK1 (Q92918 whole entry, species assumed): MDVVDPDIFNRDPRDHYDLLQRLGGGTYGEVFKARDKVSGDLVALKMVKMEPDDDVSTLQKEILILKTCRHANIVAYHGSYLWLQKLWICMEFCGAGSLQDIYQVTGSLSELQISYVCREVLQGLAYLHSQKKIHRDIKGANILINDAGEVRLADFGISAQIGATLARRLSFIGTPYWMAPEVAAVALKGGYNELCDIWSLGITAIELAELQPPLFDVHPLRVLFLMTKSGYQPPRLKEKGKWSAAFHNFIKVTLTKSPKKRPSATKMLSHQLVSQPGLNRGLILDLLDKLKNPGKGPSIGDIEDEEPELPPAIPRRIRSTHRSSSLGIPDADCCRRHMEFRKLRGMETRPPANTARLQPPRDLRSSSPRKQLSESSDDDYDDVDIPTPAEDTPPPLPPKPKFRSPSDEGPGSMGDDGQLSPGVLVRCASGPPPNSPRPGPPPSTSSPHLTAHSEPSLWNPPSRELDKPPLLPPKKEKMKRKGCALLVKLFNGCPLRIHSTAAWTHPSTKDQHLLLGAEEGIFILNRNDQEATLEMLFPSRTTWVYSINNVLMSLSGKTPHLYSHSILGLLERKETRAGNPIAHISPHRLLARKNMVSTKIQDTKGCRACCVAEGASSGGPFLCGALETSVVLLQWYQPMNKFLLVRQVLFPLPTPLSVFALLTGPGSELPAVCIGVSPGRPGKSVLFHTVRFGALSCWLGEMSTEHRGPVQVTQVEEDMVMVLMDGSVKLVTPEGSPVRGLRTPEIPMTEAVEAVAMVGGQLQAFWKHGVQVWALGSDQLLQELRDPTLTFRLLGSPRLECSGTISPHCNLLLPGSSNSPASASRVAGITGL

As to `Cc1cc(Nc2cc3nc(-c4cccc(C(=O)N[C@@H]5CCCOC5)c4)sc3cn2)nc(N2C[C@@H]3C[C@H]2CN3CCO)n1` [Example 540], the IC50 (in assay [1] (setting [2]); on HPK1 (setting [3])) was under 100 nM throughout.

As for `Cc1cc(Nc2cc3nc(-c4ccnc(N5C[C@H]6COC[C@H]6C5)c4)sc3cn2)nc(N2C[C@@H]3C[C@H]2CN3CCO)n1` [Example 452], the IC50 is 100 to 1000 nM in assay [1] (setting [2]) and under 100 nM on HPK1 (setting [3]).

Take `CN1C[C@@H]2C[C@H]1CN2c1nc(Nc2cc3nc(-c4cccc(C(C)(C)O)c4)sc3cn2)cc(C2CCOCC2)n1` [Example 440]: the IC50 (in assay [1] (setting [2]); on HPK1 (setting [3]); on HPK1 (setting [4])) was under 100 nM in each case.

For `Cc1cc(Nc2cc3nc(-n4cc(F)cn4)sc3cn2)nc(N2C[C@@H]3C[C@H]2CN3C)n1` [Example 429], the IC50 in assay [1] (setting [2]) is 100 to 1000 nM; on HPK1 (setting [3]), under 100 nM.

As for `Cc1cccnc1-c1nc2cc(Nc3cnc(C)c(N4C[C@@H]5C[C@H]4CN5)n3)ncc2s1` [Example 148, 6-[(1S,4S)-2,5-Diazabicyclo[2.2.1]heptan-2-yl]-5-methyl-N-[2-(3-methylpyridin-2-yl)-[1,3]thiazolo[5,4-c]pyridin-6-yl]pyrazin-2-amine], the IC50 (in assay [1] (setting [5]); on HPK1 (setting [6])) was under 100 nM each time.

Regarding `CCN1C[C@@H]2C[C@H]1CN2c1nc(C)cc(Nc2cc3nc(-c4cccc(C(=O)NC5CCCC5)c4)sc3cn2)n1` [Example 515], the IC50 (in assay [1] (setting [2]); on HPK1 (setting [3])) was under 100 nM throughout.

For `CCN1C[C@@H]2C[C@H]1CN2c1nc(C)cc(Nc2cc3nc(-c4cccc(C(=O)N5CCC[C@@H](C)C5)c4)sc3cn2)n1` [Example 511], the IC50 in assay [1] (setting [2]) was 100 to 1000 nM; on HPK1 (setting [3]), under 100 nM.

With `Cc1cc(-c2nc3cc(Nc4ccc(C5CCOCC5)c(CN[C@H]5CCOC5)n4)ncc3s2)ccn1` [Example 221, N-[2-(2-Methylpyridin-4-yl)-[1,3]thiazolo[5,4-c]pyridin-6-yl]-5-(oxan-4-yl)-6-({[(3S)-oxolan-3-yl]amino}methyl)pyridin-2-amine], the IC50 in assay [1] (setting [5]) was 100 to 1000 nM; on HPK1 (setting [6]), under 100 nM.

Turning to `CN1C[C@@H]2C[C@H]1CN2c1cncc(Nc2cc3nc(-c4cccc(S(=O)(=O)N(C)C)c4)sc3cn2)n1` [Example 288, N,N-dimethyl-3-[6-({6-[(1S,4S)-5-methyl-2,5-diazabicyclo[2.2.1]heptan-2-yl]pyrazin-2-yl}amino)-[1,3]thiazolo[5,4-c]pyridin-2-yl]benzene-1-sulfonamide], the IC50 lay in the range of 1000 to 5000 nM in assay [1] (setting [5]) and 100 to 1000 nM on HPK1 (setting [6]).

Take `CCN1C[C@@H]2C[C@H]1CN2c1nc(C)cc(Nc2cc3nc(-c4cccc(C(=O)N5CC[C@H](OC)C5)c4)sc3cn2)n1` [Example 534]: the IC50 is 100 to 1000 nM in assay [1] (setting [2]) and under 100 nM at HPK1 (setting [3]).

For `Cc1cccnc1-c1nc2cc(Nc3cccc(N4CC5CCC4CN5C)n3)ncc2s1` (centres unmarked) [Example 97, 6-{5-Methyl-2,5-diazabicyclo[2.2.2]octan-2-yl}-N-[2-(3-methylpyridin-2-yl)-[1,3]thiazolo[5,4-c]pyridin-6-yl]pyridin-2-amine], the values for the IC50 (in assay [1] (setting [5]); on HPK1 (setting [6])) were 1000 to 5000 nM and under 100 nM, respectively.

On to `CN1C[C@@H]2C[C@H]1CN2c1nccc(Nc2cc3nc(-c4cccc(N5CC[C@H](O)C5)c4)sc3cn2)n1` [Example 123, (3S)-1-{3-[6-({2-[(1S,4S)-5-Methyl-2,5-diazabicyclo[2.2.1]heptan-2-yl]pyrimidin-4-yl}amino)-[1,3]thiazolo[5,4-c]pyridin-2-yl]phenyl}pyrrolidin-3-ol], for which the IC50 in assay [1] (setting [5]) is 1000 to 5000 nM; on HPK1 (setting [6]) it was under 100 nM; on HPK1 (5 nM HPK1, 200 μM ATP, read-out: Biochemical Potency (high ATP)) it was under 100 nM.

In the case of `CN1C[C@@H]2C[C@H]1CN2c1nccc(Nc2cc3nc(-c4cccc(S(=O)(=O)N(C)C)c4)sc3cn2)n1` [Example 289, N,N-dimethyl-3-[6-({2-[(1S,4S)-5-methyl-2,5-diazabicyclo[2.2.1]heptan-2-yl]pyrimidin-4-yl}amino)-[1,3]thiazolo[5,4-c]pyridin-2-yl]benzene-1-sulfonamide], the IC50 was 100 to 1000 nM in assay [1] (setting [5]) and under 100 nM at HPK1 (setting [6]).

`c1ccc(-c2nc3cc(Nc4ccc(N5CCOCC5)c(CN5CCCC5)n4)ncc3s2)nc1` [Example 7, 5-(Morpholin-4-yl)-N-[2-(pyridin-2-yl)-[1,3]thiazolo[5,4-c]pyridin-6-yl]-6-[(pyrrolidin-1-yl)methyl]pyridin-2-amine]: the IC50 in assay [1] (setting [5]) is 1000 to 5000 nM; at HPK1 (setting [6]), under 100 nM.

Regarding `Cc1cc(Nc2cc3nc(-c4cnn5c4CCCC5)sc3cn2)nc(N2C[C@@H]3C[C@H]2CN3C)n1` [Example 379], the IC50 is 1000 to 5000 nM in assay [1] (setting [2]) and under 100 nM at HPK1 (setting [3]).

`CN(C)Cc1nc(Nc2cc3nc(-c4ccncc4)sc3cn2)ccc1N1CCOCC1` [Example 5, 6-[(Dimethylamino)methyl]-5-(morpholin-4-yl)-N-[2-(pyridin-4-yl)-[1,3]thiazolo[5,4-c]pyridin-6-yl]pyridin-2-amine]: the IC50 (in assay [1] (setting [5]); at HPK1 (setting [6])) was under 100 nM throughout.

As for `CCN1C[C@@H]2C[C@H]1CN2c1nc(C)cc(Nc2cc3nc(-c4cccc(C(=O)N(C)C5CCN(S(C)(=O)=O)CC5)c4)sc3cn2)n1` [Example 311, N-(1-mesyl-4-piperidyl)-N-methylm-[6-(2-{(1S,4S)-5-ethyl-2,5-diazabicyclo[2.2.1]hept-2-yl}-6-methyl-4-pyrimidinylamino)-3-thia-1,5-diaza-2-indenyl]benzamide], the results for the IC50 (in assay [1] (setting [2]); on HPK1 (setting [3])) were 100 to 1000 nM and under 100 nM, respectively.

Regarding `CCN1C[C@@H]2C[C@H]1CN2c1nc(C)cc(Nc2cc3nc(-c4cccc(C(=O)N5CCCOCC5)c4)sc3cn2)n1` [Example 531], the IC50 in assay [1] (setting [2]) was 100 to 1000 nM; on HPK1 (setting [3]), under 100 nM.

In the case of `CN1C[C@@H]2C[C@H]1CN2c1nccc(Nc2cc3nc(-c4ccnc(N5CC[C@@H](O)C5)c4)sc3cn2)n1` [Example 464], the IC50 in assay [1] (pSLP76 (Ser376) AlphaLISA, anti-CD3 activated Jurkat cells) is 100 to 1000 nM; on HPK1 (setting [4]), under 100 nM.

Turning to `CNC(=O)c1cccc(-c2nc3cc(Nc4cc(C)nc(N5C[C@@H]6C[C@H]5CN6CCO)n4)ncc3s2)c1` [Example 549], the figures for the IC50 (in assay [1] (setting [2]); at HPK1 (setting [3])) were 100 to 1000 nM and under 100 nM, respectively.

For the molecule `Cc1cccnc1-c1nc2cc(Nc3cc(F)cc(N4C[C@@H]5C[C@H]4CN5C)n3)ncc2s1` [Example 119, 4-Fluoro-6-[(1S,4S)-5-methyl-2,5-diazabicyclo[2.2.1]heptan-2-yl]-N-[2-(3-methylpyridin-2-yl)-[1,3]thiazolo[5,4-c]pyridin-6-yl]pyridin-2-amine], the IC50 is 100 to 1000 nM in assay [1] (setting [5]) and under 100 nM at HPK1 (setting [6]).

On to `CN1C[C@@H]2C[C@H]1CN2c1cccc(Nc2cc3nc(-c4cccc(C(=O)N5CCCC5)c4)sc3cn2)n1` [Example 130, 6-[(1S,4S)-5-Methyl-2,5-diazabicyclo[2.2.1]heptan-2-yl]-N-{2-[3-(pyrrolidine-1-carbonyl)phenyl]-[1,3]thiazolo[5,4-c]pyridin-6-yl}pyridin-2-amine], for which the IC50 in assay [1] (setting [5]) is 100 to 1000 nM; at HPK1 (setting [6]) it was under 100 nM.

Consider `Cc1c(N)cncc1-c1nc2cc(Nc3ccc(N4CCOCC4)c(CN(C)C)n3)ncc2s1` [Example 29, N-[2-(5-Amino-4-methylpyridin-3-yl)-[1,3]thiazolo[5,4-c]pyridin-6-yl]-6-[(dimethylamino)methyl]-5-(morpholin-4-yl)pyridin-2-amine], for which the IC50 in assay [1] (setting [5]) is 100 to 1000 nM; at HPK1 (setting [6]) it was under 100 nM.

Take `Fc1cccc(F)c1-c1nc2cc(Nc3ccc4c(c3)CC[C@@H](N3C5COCC3C5)CC4)ncc2s1` [Example 329]: the IC50 in assay [1] (setting [2]) lay within 5000 to 25000 nM; on HPK1 (setting [4]) it was 100 to 1000 nM.

Turning to `Cc1cc(Nc2cc3nc(-c4ncc(C)o4)sc3cn2)nc(N2C[C@@H]3C[C@H]2CN3CCO)n1` [Example 359], the IC50 (in assay [1] (setting [2]); on HPK1 (setting [3])) was under 100 nM throughout.

For the molecule `CCN1C[C@@H]2C[C@H]1CN2c1nc(C)cc(Nc2cc3nc(-c4cccc(C(=O)N5CCC6(CCOC6)C5)c4)sc3cn2)n1` (some centres unmarked) [Example 530], the IC50 in assay [1] (setting [2]) is 100 to 1000 nM; on HPK1 (setting [3]), under 100 nM.

Turning to `CCN1C[C@@H]2C[C@H]1CN2c1nc(C)cc(Nc2cc3nc(O[C@H](C)c4ccccc4)sc3cn2)n1` [Example 298, 2-[(1S,4S)-5-ethyl-2,5-diazabicyclo[2.2.1]heptan-2-yl]-6-methyl-N-{2-[(1R)-1-phenylethoxy]-[1,3]thiazolo[5,4-c]pyridin-6-yl}pyrimidin-4-amine], the IC50 (in assay [1] (setting [2]); at HPK1 (setting [3])) was under 100 nM throughout.

In the case of `Cc1cc(Nc2cc3nc(-c4cccc(-c5ccn(C)n5)c4)sc3cn2)nc(N2C[C@@H]3C[C@H]2CN3C)n1` [Example 365], the IC50 in assay [1] (setting [2]) was 5000 to 25000 nM; on HPK1 (setting [3]), under 100 nM.

Take `Cc1ccc(Nc2cc3nc(-n4nccc4C)sc3cn2)nc1CN1CCCC1` [Example 197, 5-Methyl-N-[2-(5-methyl-1H-pyrazol-1-yl)-[1,3]thiazolo[5,4-c]pyridin-6-yl]-6-[(pyrrolidin-1-yl)methyl]pyridin-2-amine]: the IC50 in assay [1] (setting [5]) is 100 to 1000 nM; on HPK1 (setting [6]), under 100 nM.

For `CCN1C[C@@H]2C[C@H]1CN2c1nc(C)cc(Nc2cc3nc(-c4cccc(C(=O)N(C)CC5CCOCC5)c4)sc3cn2)n1` [Example 523], the results for the IC50 (in assay [1] (setting [2]); on HPK1 (setting [3])) were 100 to 1000 nM and under 100 nM, respectively.
